Data set [1] concerns M2-10B4 (M2) marrow stromal cells. The following applies: cited from earlier work.
For data set [2], the system named is C3H10T1/2 embryonic fibroblasts. The following applies: cited from earlier work.
The test system of a further data set is rat spines. The data set can be described thus: rat two-level spine model, implants in the posterolateral space, radiographs and manual palpation. It counts as in vivo. The note with it: 4-week and 8-week time points. How it is done:
FIG. 6 illustrates uses of a formulation of malleable implants having 20 mg of Oxy133 on each side of the implant, in accordance with the malleable implants described herein. […] A dry composition of a matrix containing Oxy133, collagen and ceramic as described herein was prepared and wetted with sterile water to be implanted in rat spines as shown in FIG. 6. The wetted matrix was cut in half with a razor blade to yield two halves. The two implants were molded into cylindrical shapes prior to insertion and were positioned bilaterally in the posterolateral space of each test subject. Each implant contained 20 mg Oxy133. Radiographs were taken roughly 10 minutes after the procedure, 4 weeks after the procedure, and 8 weeks after the procedure. […] Fusion was tested at 8-week sacrifice by manual palpation. […] A dry composition of a matrix containing Oxy133, collagen and ceramic as described herein was prepared and wetted with sterile water to be implanted in rat spines as shown in FIG. 6. The wetted matrix was cut in half with a razor blade to yield two halves. The two implants were molded into cylindrical shapes prior to insertion and were positioned bilaterally in the posterolateral space of each test subject. Each implant contained 125 mg Oxy133. Radiographs were taken roughly 10 minutes after the procedure, 4 weeks after the procedure, and 8 weeks after the procedure. […]

Data set [3] is described as follows: solubility of Oxy133 in water. It counts as physicochemical. The source says:
The Oxy133 can be solubilized in a non-aqueous solvent, such as for example, ethanol and mixed into a solution or suspension. In some embodiments, the Oxy133 can be filtered by passing the Oxy133 and solvent through a filter (e.g., 0.22 microns). This will remove bacteria and other larger-size particulates out of the composition. The Oxy133 used in the composition can be micronized before it is mixed with solvents and other excipients. In various embodiments, the particle size of the Oxy133 can range from about 1 micron to 250 microns. In some embodiments, the Oxy133 can have a particle size of from about 5 microns to about 100 microns or from about 20 to 50 microns. The Oxy133 in the solution or suspension can be added to a slurry of biodegradable polymer and/or the ceramic particles, mixed and, then dried.

The next data set has as its system Mesenchymal stem cells. The data set can be described thus: osteoblast differentiation of mesenchymal stem cells treated with Oxy133. It counts as cell-based. The source says:
Thus, in some embodiments, a matrix comprising Oxy133 may be implanted into a spinal site with mesenchymal stem cells to induce bone growth through osteoblast differentiation. Periosteum tissue is one tissue type that is involved early during normal bone fracture repair process and can recruit various cell types (e.g., mesenchymal stem cells) and bone growth factors necessary for bone fracture repair. Thus, in some embodiments, periosteum tissue is utilized as a source of mesenchymal stem cells and/or growth factors in a demineralized bone composition.

Entries after “also recorded” stand apart in the source; their conditions may differ.

Regarding `CC(C)CC[C@H](O)[C@@H](C)[C@H]1CC[C@H]2[C@@H]3CC=C4C[C@@H](O)CC[C@]4(C)[C@H]3CC[C@]12C` [22(S)-, 22(S)-hydroxycholesterol], the osteogenic differentiation result in data set [1] and in data set [2] was “induce osteogenic differentiation” in each case.

`CCCCCC[C@](C)(O)[C@H]1CC[C@H]2[C@@H]3C[C@H](O)[C@H]4C[C@@H](O)CC[C@]4(C)[C@H]3CC[C@@]21C` [Oxy133, (3S,5S,6S,8R,9S,10R, 13S, 14S,17S) 17-((S)-2-hydroxyoctan-2-yl)-10,13-dimethylhexadecahydro-1H-cyclopenta[a]phenanthrene-3,6-diol]: the “bridging bone across the transverse processes of L3-L5 (radiographs)” value with rat spines (each implant 20 mg Oxy133) is reported as “Bone growth in rat test subjects can be seen; also recorded: promoted bridging bone”; in the data set with rat spines (each implant 125 mg Oxy133), “promoted bridging bone; also recorded: Bone growth in rat test subjects can be seen”. Further, the solubility in water entry in data set [3] is listed as “only slightly soluble or insoluble”. In addition, in the data set with Mesenchymal stem cells, the osteoblast differentiation result is on record as “increased osteoblast differentiation”.

Consider `CC(C)CCC[C@](C)(O)[C@H]1CC[C@H]2[C@@H]3CC=C4C[C@@H](O)CC[C@]4(C)[C@H]3CC[C@@]21C` [20(S)-hydroxycholesterol], for which the osteogenic differentiation result in data set [1] and in data set [2] was “induce osteogenic differentiation” in each case.

For `CC(C)CC[C@@H](O)[C@@H](C)[C@H]1CC[C@H]2[C@@H]3CC=C4C[C@@H](O)CC[C@]4(C)[C@H]3CC[C@]12C` [22(R)-hydroxycholesterol], the osteogenic differentiation entry in data set [1] and in data set [2] was “induce osteogenic differentiation” throughout.

Source of the values: patent US10987450B2, “Lyophilized moldable implants containing an oxysterol” (Warsaw Orthopedic, Inc., priority 2016, dated 2021).
